Laboratory results reported in US7763728B2, “Tetrahydropyridothiophenes” (4SC AG, priority 2005, dated 2010).

Experiments:
[1] = tested on: RKO (RKOp27) human colon adenocarcinoma cells; assay: Alamar Blue cell viability assay, anti-proliferative/cytotoxic activity on proliferating (uninduced) RKOp27 cells; assay type: cell-based; conditions: 72 hours incubation, absence of the inducer Ponasterone A, read-out: IC50 RKO p27 uninduced (proliferating)
Outline: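 RKOp27 subclones seeded at 5000 cells/well, compounds added after 24 h in DMEM/10% FCS, quadruplicates, 72 h at 37 °C, 5% CO2. Alamar Blue fluorescence (ex 544/em 590 nm) normalised to untreated cells (1% DMSO medium) as 100%; IC50 from concentration-effect curves.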

[2] = tested on: RKO colon adenocarcinoma cells (RKOp27) arrested by the expression of ectopic p27Kip1; assay: Alamar Blue cell viability assay on RKOp27 cells arrested by p27Kip1 expression induced by Ponasterone A; assay type: cell-based; conditions: Homo sapiens, 72 hours incubation, 10 μM Ponasterone A, read-out: IC50 RKO p27 induced (arrested)
Outline: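 RKOp27 cells, 15000/well, held in DMEM with 10% FCS and with or without 10 μM Ponasterone A to induce p27Kip1 arrest. Compound dilutions added 24 h after seeding, then 72 h at 37 °C in quadruplicate. Alamar Blue fluorescence (544/590 nm) gave % viability relative to untreated cells.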

Row | IC50 [2] [µM] | Compound | IC50 [1] [nM]
1 | ≥ 10 | COc1ccccc1CCC(=O)Nc1sc2c(c1C#N)CCN(C(=O)CCc1nccn1C)C2 [Example 116, N-{3-Cyano-6-[3-(1-methyl-1H-imidazol-2-yl)-propanoyl]-4,5,6,7-tetrahydro-thieno[2,3-c]pyridin-2-yl}-3-(2-methoxy-phenyl)-propionamide] | ≤ 300
2 | ≥ 10 | CCOc1ccccc1CCC(=O)Nc1sc2c(c1C#N)CCN(C(=O)CCc1nccn1C)C2 [Example 117, N-{3-Cyano-6-[3-(1-methyl-1H-imidazol-2-yl)-propanoyl]-4,5,6,7-tetrahydro-thieno[2,3-c]pyridin-2-yl}-3-(2-ethoxy-phenyl)-propionamide] | ≤ 300
3 | ≥ 10 | COc1ccc(C)cc1CCC(=O)Nc1sc2c(c1C#N)CCN(C(=O)CCc1nccn1C)C2 [Example 118, N-{3-Cyano-6-[3-(1-methyl-1H-imidazol-2-yl)-propanoyl]-4,5,6,7-tetrahydro-thieno[2,3-c]pyridin-2-yl}-3-(2-methoxy-5-methyl-phenyl)-propionamide] | 300 to 2000
4 | > 100 | COc1ccccc1CCC(=O)Nc1sc2c(c1C#N)CCN(C(=O)CCc1ccncc1)C2 [Example 122, N-[3-Cyano-6-(3-pyridin-4-yl-propanoyl)-4,5,6,7-tetrahydro-thieno[2,3-c]pyridin-2-yl]-3-(2-methoxy-phenyl)-propionamide] | ≤ 300
5 | ≥ 10 | CCOc1ccccc1CCC(=O)Nc1sc2c(c1C#N)CCN(C(=O)CCc1ccncc1)C2 [Example 123] | ≤ 300
6 | ≥ 10 | COc1ccc(C)cc1CCC(=O)Nc1sc2c(c1C#N)CCN(C(=O)CCc1ccncc1)C2 [Example 124, N-[3-Cyano-6-(3-pyridin-4-yl-propanoyl)-4,5,6,7-tetrahydro-thieno[2,3-c]pyridin-2-yl]-3-(2-methoxy-5-methyl-phenyl)-propionamide] | 300 to 2000
7 | ≥ 40 | COc1cccc(CCC(=O)Nc2sc3c(c2C#N)CCN(C(=O)Cn2ccnc2C)C3)c1 [Example 129, N-{3-Cyano-6-[2-(2-methyl-imidazol-1-yl)-ethanoyl]-4,5,6,7-tetrahydro-thieno[2,3-c]pyridin-2-yl}-3-(3-methoxy-phenyl)-propionamide] | 300 to 2000
8 | ≥ 40 | COc1ccccc1CCC(=O)Nc1sc2c(c1C#N)CCN(C(=O)Cn1ccnc1C)C2 [Example 130, N-{3-Cyano-6-[2-(2-methyl-imidazol-1-yl)-ethanoyl]-4,5,6,7-tetrahydro-thieno[2,3-c]pyridin-2-yl}-3-(2-methoxy-phenyl)-propionamide] | ≤ 300
9 | ≥ 40 | CCOc1ccccc1CCC(=O)Nc1sc2c(c1C#N)CCN(C(=O)Cn1ccnc1C)C2 [Example 131, N-{3-Cyano-6-[2-(2-methyl-imidazol-1-yl)-ethanoyl]-4,5,6,7-tetrahydro-thieno[2,3-c]pyridin-2-yl}-3-(2-ethoxy-phenyl)-propionamide] | ≤ 300
10 | ≥ 40 | COc1ccc(C)cc1CCC(=O)Nc1sc2c(c1C#N)CCN(C(=O)Cn1ccnc1C)C2 [Example 132, N-{3-Cyano-6-[2-(2-methyl-imidazol-1-yl)-ethanoyl]-4,5,6,7-tetrahydro-thieno[2,3-c]pyridin-2-yl}-3-(2-methoxy-5-methyl-phenyl)-propionamide] | ≤ 300
11 | ≥ 40 | COc1cccc(CCC(=O)Nc2sc3c(c2C#N)CCN(C(=O)Cn2cnc(C)c2)C3)c1 [Example 138, N-{3-Cyano-6-[2-(4-methyl-imidazol-1-yl)-ethanoyl]-4,5,6,7-tetrahydro-thieno[2,3-c]pyridin-2-yl}-3-(3-methoxy-phenyl)-propionamide] | 300 to 2000
12 | ≥ 40 | COc1ccccc1CCC(=O)Nc1sc2c(c1C#N)CCN(C(=O)Cn1cnc(C)c1)C2 [Example 139, N-{3-Cyano-6-[2-(4-methyl-imidazol-1-yl)-ethanoyl]-4,5,6,7-tetrahydro-thieno[2,3-c]pyridin-2-yl}-3-(2-methoxy-phenyl)-propionamide] | ≤ 300
13 | ≥ 40 | CCOc1ccccc1CCC(=O)Nc1sc2c(c1C#N)CCN(C(=O)Cn1cnc(C)c1)C2 [Example 140, N-{3-Cyano-6-[2-(4-methyl-imidazol-1-yl)-ethanoyl]-4,5,6,7-tetrahydro-thieno[2,3-c]pyridin-2-yl}-3-(2-ethoxy-phenyl)-propionamide] | ≤ 300
14 | ≥ 40 | COc1ccc(C)cc1CCC(=O)Nc1sc2c(c1C#N)CCN(C(=O)Cn1cnc(C)c1)C2 [Example 141, N-{3-Cyano-6-[2-(4-methyl-imidazol-1-yl)-ethanoyl]-4,5,6,7-tetrahydro-thieno[2,3-c]pyridin-2-yl}-3-(2-methoxy-5-methyl-phenyl)-propionamide] | 300 to 2000
15 | ≥ 10 | COc1ccccc1CCC(=O)Nc1sc2c(c1C#N)CCN(C(=O)Cn1cc(C)nc1C)C2 [Example 147, N-{3-Cyano-6-[2-(2,4-dimethyl-imidazol-1-yl)-ethanoyl]-4,5,6,7-tetrahydro-thieno[2,3-c]pyridin-2-yl}-3-(2-methoxy-phenyl)-propionamide] | ≤ 300
16 | ≥ 10 | CCOc1ccccc1CCC(=O)Nc1sc2c(c1C#N)CCN(C(=O)Cn1cc(C)nc1C)C2 [Example 148, N-{3-Cyano-6-[2-(2,4-dimethyl-imidazol-1-yl)-ethanoyl]-4,5,6,7-tetrahydro-thieno[2,3-c]pyridin-2-yl}-3-(2-ethoxy-phenyl)-propionamide] | ≤ 300
17 | ≥ 10 | COc1ccc(C)cc1CCC(=O)Nc1sc2c(c1C#N)CCN(C(=O)Cn1cc(C)nc1C)C2 [Example 149, N-{3-Cyano-6-[2-(2,4-dimethyl-imidazol-1-yl)-ethanoyl]-4,5,6,7-tetrahydro-thieno[2,3-c]pyridin-2-yl}-3-(2-methoxy-5-methyl-phenyl)-propionamide] | 300 to 2000
18 | ≥ 10 | COc1cccc(CCC(=O)Nc2sc3c(c2C#N)CCN(C(=O)CCn2cnc(C)c2)C3)c1 [Example 154, N-{3-Cyano-6-[3-(4-methyl-imidazol-1-yl)-propanoyl]-4,5,6,7-tetrahydro-thieno[2,3-c]pyridin-2-yl}-3-(3-methoxy-phenyl)-propionamide] | 300 to 2000
19 | ≥ 10 | COc1ccccc1CCC(=O)Nc1sc2c(c1C#N)CCN(C(=O)CCn1cnc(C)c1)C2 [Example 155, N-{3-Cyano-6-[3-(4-methyl-imidazol-1-yl)-propanoyl]-4,5,6,7-tetrahydro-thieno[2,3-c]pyridin-2-yl}-3-(2-methoxy-phenyl)-propionamide] | 300 to 2000
20 | ≥ 10 | CCOc1ccccc1CCC(=O)Nc1sc2c(c1C#N)CCN(C(=O)CCn1cnc(C)c1)C2 [Example 156, N-{3-Cyano-6-[3-(4-methyl-imidazol-1-yl)-propanoyl]-4,5,6,7-tetrahydro-thieno[2,3-c]pyridin-2-yl}-3-(2-ethoxy-phenyl)-propionamide] | ≤ 300
21 | ≥ 10 | COc1ccc(C)cc1CCC(=O)Nc1sc2c(c1C#N)CCN(C(=O)CCn1cnc(C)c1)C2 [Example 157, N-{3-Cyano-6-[3-(4-methyl-imidazol-1-yl)-propanoyl]-4,5,6,7-tetrahydro-thieno[2,3-c]pyridin-2-yl}-3-(2-methoxy-5-methyl-phenyl)-propionamide] | 300 to 2000
22 | ≥ 10 | COc1ccccc1CCC(=O)Nc1sc2c(c1C#N)CCN(C(=O)CCn1cc(C)nc1C)C2 [Example 161, N-{3-Cyano-6-[3-(2,4-dimethyl-imidazol-1-yl)-propanoyl]-4,5,6,7-tetrahydro-thieno[2,3-c]pyridin-2-yl}-3-(2-methoxy-phenyl)-propionamide] | 300 to 2000
23 | ≥ 10 | CCOc1ccccc1CCC(=O)Nc1sc2c(c1C#N)CCN(C(=O)CCn1cc(C)nc1C)C2 [Example 162, N-{3-Cyano-6-[3-(2,4-dimethyl-imidazol-1-yl)-propanoyl]-4,5,6,7-tetrahydro-thieno[2,3-c]pyridin-2-yl}-3-(2-ethoxy-phenyl)-propionamide] | 300 to 2000
24 | ≥ 10 | COc1ccc(C)cc1CCC(=O)Nc1sc2c(c1C#N)CCN(C(=O)CCn1cc(C)nc1C)C2 [Example 163, N-{3-Cyano-6-[3-(2,4-dimethyl-imidazol-1-yl)-propanoyl]-4,5,6,7-tetrahydro-thieno[2,3-c]pyridin-2-yl}-3-(2-methoxy-5-methyl-phenyl)-propionamide] | 300 to 2000
